US6239122A, “Method of treatment of nausea, vomiting, and other disorders using estrogens” (priority 2000, dated 2001)

Experiments:
[1] = target: T1, 5-HT3 receptor (Mus musculus, UniProt P23979); assay: Whole-cell patch clamp, co-application of estrogen with 5-HT (0.5 μM); open conformation, high affinity site; type: cell-based, mouse neuroblastoma×Chinese hamster brain cell line (NCB-20)
T1 construct: an immortal cell line that expresses 5-HT3 receptors at a high density; endogenous in cells; host or cells: NCB-20 cells (mouse neuroblastoma × Chinese hamster brain hybrid)
T1 sequence (P23979 24-489): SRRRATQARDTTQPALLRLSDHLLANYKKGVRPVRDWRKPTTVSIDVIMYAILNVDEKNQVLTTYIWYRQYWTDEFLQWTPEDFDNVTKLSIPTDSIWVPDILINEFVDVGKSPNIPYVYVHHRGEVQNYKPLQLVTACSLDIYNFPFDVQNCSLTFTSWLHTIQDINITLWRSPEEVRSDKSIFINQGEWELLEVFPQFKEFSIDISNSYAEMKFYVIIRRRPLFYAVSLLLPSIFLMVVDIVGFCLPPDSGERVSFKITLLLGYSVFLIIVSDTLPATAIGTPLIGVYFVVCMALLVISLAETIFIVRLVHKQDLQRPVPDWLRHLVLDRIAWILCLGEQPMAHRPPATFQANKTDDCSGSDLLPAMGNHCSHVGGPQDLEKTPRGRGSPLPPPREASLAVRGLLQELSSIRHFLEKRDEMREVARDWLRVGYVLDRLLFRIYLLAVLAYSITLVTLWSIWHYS
Protocol: I recorded membrane currents carried by 5-HT3 receptors under voltage-clamp from single cells using the whole-cell configuration of the patch clamp technique (Hamill, O. P., Marty, A., Neher, E., Sakmann, B. & Sakmann, F. J., 1981, Pfluegers Arch. 391:85-100). Recordings were performed at a holding potential of -60 mV. Ligands were applied to the cells using a gravity-feed rapid perfusion system.
When the agonist is bound to the receptor and the receptor is conducting current, the receptor is in an open conformation. […] Concentration-effect data from 21 cells were fitted with the Hill (logistic) equation.

[2] = target: T1, 5-HT3 receptor; assay: Whole-cell patch clamp, estrogen applied before 5-HT (10 μM); closed conformation, low affinity site; type: cell-based, mouse neuroblastoma×Chinese hamster brain cell line (NCB-20)
Protocol: I used NCB-20 cells (mouse neuroblastoma×Chinese hamster brain cell line), an immortal cell line that expresses 5-HT3 receptors at a high density. Cells were grown in Dulbecco's modified Eagles medium containing 10% fetal bovine serum, 100 U/ml penicillin, 100 μg/ml streptomycin and 2 mM glutamine. Cells were incubated in 35 mm plates at 37 degrees C in a humidified 7% carbon dioxide atmosphere. […] I recorded membrane currents carried by 5-HT3 receptors under voltage-clamp from single cells using the whole-cell configuration of the patch clamp technique (Hamill, O. P., Marty, A., Neher, E., Sakmann, B. & Sakmann, F. J., 1981, Pfluegers Arch. 391:85-100). Recordings were performed at a holding potential of -60 mV. Ligands were applied to the cells using a gravity-feed rapid perfusion system.
This is also called the closed conformation of the receptor.

C[C@]12CC[C@@H]3c4ccc(O)cc4CC[C@H]3[C@@H]1C[C@@H](O)[C@@H]2O [estriol]
IC50 [1]: 22000 ± 8000 nM

C[C@]12CC[C@@H]3c4ccc(O)cc4CC[C@H]3[C@@H]1CCC2=O [estrone, 3-hydroxyestra-1,3,5(10)-trien-17-one]
IC50 [1]: 1.5 nM
IC50 [2]: 300 ± 20 nM
